Test results reported in the supplement of paper PMC10307832.

Columns and labels:
Assay in all cases: relative viability (nuclei count vs DMSO), 5 days (fraction); higher = more cells survive
Vismodegib + Tozasertib = compound: CS(=O)(=O)c1ccc(C(=O)Nc2ccc(Cl)c(-c3ccccn3)c2)c(Cl)c1 [Vismodegib] + Cc1cc(Nc2cc(N3CCN(C)CC3)nc(Sc3ccc(NC(=O)C4CC4)cc3)n2)n[nH]1 [Tozasertib] (partner 0.1 µM)
Outline: (§1)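 A single step with final 0.05% Triton X-100, 1% formaldehyde and 1 ug/ml Hoechst fixed the cells and stained nuclei 5 days after treatment. Lung cancer cell lines in 1536-well plates had been treated by pin tool the day after seeding with one drug alone or a fixed anchor-drug dose plus five library-drug doses (not always all listed) in √10 steps, and nuclei were counted on 4× images. Relative viability is the ratio of nuclei in treated wells to nuclei in vehicle wells, taken as the median of duplicate plates.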

VE-821 + Lapatinib = compound: CS(=O)(=O)c1ccc(-c2cnc(N)c(C(=O)Nc3ccccc3)n2)cc1 [VE-821] + CS(=O)(=O)CCNCc1ccc(-c2ccc3ncnc(Nc4ccc(OCc5cccc(F)c5)c(Cl)c4)c3c2)o1 [Lapatinib] (partner 2 µM)
Outline: as §1

VE-821 + Foretinib = compound: CS(=O)(=O)c1ccc(-c2cnc(N)c(C(=O)Nc3ccccc3)n2)cc1 [VE-821] + COc1cc2c(Oc3ccc(NC(=O)C4(C(=O)Nc5ccc(F)cc5)CC4)cc3F)ccnc2cc1OCCCN1CCOCC1 [Foretinib] (partner 0.25 µM)
Outline: as §1

Vismodegib + Decitabine = compound: CS(=O)(=O)c1ccc(C(=O)Nc2ccc(Cl)c(-c3ccccn3)c2)c(Cl)c1 [Vismodegib] + Nc1ncn([C@H]2C[C@H](O)[C@@H](CO)O2)c(=O)n1 [Decitabine] (partner 2 µM)
Outline: as §1

Cell Line | relative viability (Vismodegib + Tozasertib; first compound 0.08 µM) | relative viability (Vismodegib + Tozasertib; first compound 0.253 µM) | relative viability (Vismodegib + Tozasertib; first compound 0.8 µM) | relative viability (Vismodegib + Tozasertib; first compound 2.53 µM) | relative viability (Vismodegib + Tozasertib; first compound 8 µM) | relative viability (VE-821 + Lapatinib; first compound 0.08 µM) | relative viability (VE-821 + Lapatinib; first compound 0.253 µM) | relative viability (VE-821 + Lapatinib; first compound 0.8 µM) | relative viability (VE-821 + Lapatinib; first compound 2.53 µM) | relative viability (VE-821 + Lapatinib; first compound 8 µM) | relative viability (VE-821 + Foretinib; first compound 0.08 µM) | relative viability (VE-821 + Foretinib; first compound 0.253 µM) | relative viability (VE-821 + Foretinib; first compound 0.8 µM) | relative viability (VE-821 + Foretinib; first compound 2.53 µM) | relative viability (VE-821 + Foretinib; first compound 8 µM) | relative viability (Vismodegib + Decitabine; first compound 0.08 µM) | relative viability (Vismodegib + Decitabine; first compound 0.253 µM) | relative viability (Vismodegib + Decitabine; first compound 0.8 µM) | relative viability (Vismodegib + Decitabine; first compound 2.53 µM) | relative viability (Vismodegib + Decitabine; first compound 8 µM)
NCI-H727 | 0.785 | 0.619 | 0.644 | 0.53 | 0.62 | 1.02 | 0.755 | 0.804 | 0.714 | 0.436 | 1.27 | 0.982 | 0.823 | 0.789 | 0.405 | 0.9 | 1.01 | 0.857 | 0.837 | 0.9
NCI-H838 | 0.263 | 0.276 | 0.263 | 0.283 | 0.29 | 1.08 | 0.99 | 0.921 | 1.11 | 0.657 | 1.21 | 0.946 | 0.892 | 1.13 | 0.877 | 0.464 | 0.43 | 0.502 | 0.431 | 0.609
NCI-H1355 | 0.568 | 0.557 | 0.613 | 0.577 | 0.548 | 1.06 | 1.05 | 0.834 | 1.07 | 0.627 | 1.04 | 0.942 | 0.768 | 1.01 | 0.729 | 0.354 | 0.333 | 0.347 | 0.372 | 0.364
NCI-H1395 | 0.823 | 0.771 | 0.71 | 0.667 | 0.81 | 0.902 | 1.15 | 0.903 | 0.987 | 0.768 | 1.05 | 1.01 | 0.826 | 0.98 | 0.828 | 0.736 | 0.696 | 0.693 | 0.71 | 0.727
NCI-H1437 | 0.395 | 0.398 | 0.396 | 0.38 | 0.392 | 0.816 | 0.71 | 0.763 | 0.871 | 0.614 | 1.3 | 1.25 | 1.16 | 1.34 | 1.24 | 0.587 | 0.533 | 0.606 | 0.554 | 0.501
NCI-H1650 | 0.413 | 0.365 | 0.315 | 0.286 | 0.34 | 0.845 | 0.749 | 0.705 | 0.757 | 0.45 | 1.15 | 1.11 | 0.718 | 1.39 | 0.692 | 0.411 | 0.388 | 0.426 | 0.447 | 0.512
NCI-H1651 | 0.617 | 0.704 | 0.643 | 0.604 | 0.704 | 0.93 | 0.815 | 0.785 | 1.04 | 0.74 | 0.72 | 0.838 | 0.662 | 0.885 | 1.02 | 0.581 | 0.617 | 0.682 | 0.528 | 0.579
NCI-H1666 | 0.564 | 0.684 | 0.591 | 0.585 | 0.7 | 0.839 | 0.57 | 0.713 | 0.623 | 0.462 | 0.97 | 1.02 | 1.04 | 1.03 | 0.783 | 0.763 | 0.774 | 0.739 | 0.676 | 0.69
NCI-H1734 | 0.249 | 0.281 | 0.267 | 0.263 | 0.263 | 1.43 | 1.04 | 1.03 | 1.16 | 0.73 | 0.972 | 0.854 | 0.805 | 1.02 | 0.722 | 0.466 | 0.437 | 0.47 | 0.505 | 0.499
NCI-H1755 | 0.568 | 0.575 | 0.534 | 0.556 | 0.524 | 1.09 | 0.997 | 0.961 | 0.981 | 0.861 | 0.956 | 0.855 | 0.845 | 0.92 | 0.765 | 0.686 | 0.727 | 0.693 | 0.677 | 0.723
NCI-H1793 | – | 0.336 | 0.393 | 0.269 | 0.279 | 0.868 | 0.735 | 0.642 | 1.31 | 0.815 | 0.749 | 0.669 | 0.589 | 0.85 | 0.55 | – | 0.475 | 0.58 | 0.476 | 0.579
NCI-H1915 | 0.431 | 0.386 | 0.466 | 0.413 | 0.414 | 1 | 0.999 | 0.994 | 1.04 | 0.88 | 1.15 | 1.08 | 1.03 | 1.09 | 0.912 | 0.265 | 0.264 | 0.236 | 0.245 | 0.258
NCI-H1944 | 0.261 | 0.285 | 0.26 | 0.269 | 0.232 | 1.09 | 0.811 | 0.748 | 0.935 | 0.386 | 0.917 | 0.84 | 0.694 | 0.862 | 0.487 | 0.428 | 0.413 | 0.456 | – | 0.405
NCI-H1975 | 0.892 | 0.744 | 0.733 | 0.643 | 0.261 | 0.884 | 0.531 | 0.856 | 0.948 | 0.669 | 0.977 | 0.89 | – | 0.82 | 0.709 | 0.386 | 0.444 | 0.396 | 0.414 | 0.404
NCI-H1993 | 0.529 | 0.548 | 0.584 | 0.632 | 0.593 | 0.947 | 0.837 | 0.75 | 0.784 | 0.826 | 0.84 | 0.736 | 0.595 | 0.737 | 0.724 | 0.524 | 0.68 | 0.588 | 0.587 | 0.543
NCI-H2009 | 0.727 | 0.674 | 0.834 | 0.817 | 0.733 | 0.89 | 0.959 | 0.893 | 0.997 | 0.977 | 1.34 | 1.26 | 1.1 | 1.28 | 1.23 | 0.363 | 0.377 | 0.366 | 0.416 | 0.344
